Patent US5162203A, “Methods of measuring isozymes and isozyme classes of alcohol dehydrogenase” (President and Fellows of Harvard College, priority 1989, dated 1992)
Like-named read-outs stand apart in the source and are kept apart here. Blank lines part the entries; values can stand above or below the compound they belong to.

What was measured:
β2 β2 ADH (Class I) = target: T1, β2 β2 ADH (Class I) (Homo sapiens, UniProt P00325); experiment: Inhibition of β2β2 ADH; assay type: biochemical; details: 0.2 mM 4-MeP
T1 construct: beta2 allele (ADH1B*2)
T1 sequence (P00325 2-375): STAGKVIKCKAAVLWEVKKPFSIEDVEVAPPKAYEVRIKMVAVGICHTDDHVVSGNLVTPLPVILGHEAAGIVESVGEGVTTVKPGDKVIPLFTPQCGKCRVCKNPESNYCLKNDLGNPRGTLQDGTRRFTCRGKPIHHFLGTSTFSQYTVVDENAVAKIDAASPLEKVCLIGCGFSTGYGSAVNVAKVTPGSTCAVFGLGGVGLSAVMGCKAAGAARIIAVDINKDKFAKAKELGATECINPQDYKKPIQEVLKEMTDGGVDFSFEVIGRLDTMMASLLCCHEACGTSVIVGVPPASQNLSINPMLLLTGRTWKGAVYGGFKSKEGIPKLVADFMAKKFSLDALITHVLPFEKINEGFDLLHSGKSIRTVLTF
Experimental: (§1) The linear increase of fluorescence was then recorded for 1-10 minutes, until 0.03-1 μM of substrate was consumed. Larger substrate consumption was not found to be desirable (described in subpart (c) below). After this period the instrument sensitivity setting was reduced 10-30 fold, the signal compensated once again by zero suppression (see part 6 above), and 60 μl of 200-400 μM product (e.g., product IB or IIB) was added to provide an internal standard. The added product fluorescence intensity was then measured Fluorescence measurements were optimized for samples with low activity (<1 nM/minute). For samples with higher activity, repeat measurements were made with the serum volume reduced from 60 μl to 10 μl. Rates measured in the presence of the 0.2 mM ADH inhibitors. 4-MeP or 4-PeP, were made by adding 50 μl of 12 mM inhibitor to the cuvette prior to the assay buffer, and the reaction was carried out as above.
(§2) Aldehyde reduction and 4-MeP inhibition are near optimal at pH 7.6 which was adopted for the study of serum samples.

β1 β1 ADH (Class I) = experiment: Inhibition of β1β1 (ββ) ADH; assay type: biochemical, human
Experimental: as §1, §2

[1] = system: ADH activity in human serum; experiment: Inhibition of ADH activity in human sera; assay type: biochemical; details: for effect on rate of reduction of IA in sera with elevated ADH: 0.5 mM
Experimental: as §1
(§3) The activities of a large group of serum samples were further examined for inhibition by 4-MeP and 4-PeP, both at 0.2 mM, a concentration that abolishes 95-98% of the Class I and Class II ADH activity as shown in Table IV above. […] In contrast, 4-PeP inhibited activity toward IA by greater than […] and IIA by more than 90% in virtually all samples examined (FIG. 8C). The total number of samples examined was 83 for FIG. 8A, 105 for FIG. 8B, and 44 for FIG. 8C.
(§4) Sera whose ADH activity was increased beyond those seen normally were selected based on the modified NDMA assay as described in part 7 of Example 1. In approximately 3% of several hundred random hospital patients tested, elevations in ADH activity were observed using the modified NDMA assay described in part 7 of Example 1. These sera with elevated levels (>2 NDMA mU/ml) were then tested by the fluorometric assay described in part 8 of Example 1 using IA as substrate. Class I ADH activity was detected in nearly all of those classified as having elevated ADH levels by the NDMA criterion. The fluorescent reaction product was analyzed and confirmed to be the alcohol ADH product IB. The observed reaction was inhibited >95% by 3 mM 4-MeP; this confirmed that the activity observed was due primarily to Class I ADH. The rate of reduction of IA was also diminished by the addition of high concentrations (>>Km) of typical ADH substrates, e.g., 0.5 mM benzaldehyde or butyraldehyde, presumably due to competition. […] The optimal dilution for routine measurements was approximately 50-fold.

[2] = target: T2, ADH activity in human serum (Homo sapiens, UniProt P08319); experiment: Inhibition of ADH activity in human sera; assay type: biochemical; details: 17 healthy volunteers
T2 construct: from tissue; host or cells: human serum of patients and volunteers
T2 sequence (P08319 whole entry): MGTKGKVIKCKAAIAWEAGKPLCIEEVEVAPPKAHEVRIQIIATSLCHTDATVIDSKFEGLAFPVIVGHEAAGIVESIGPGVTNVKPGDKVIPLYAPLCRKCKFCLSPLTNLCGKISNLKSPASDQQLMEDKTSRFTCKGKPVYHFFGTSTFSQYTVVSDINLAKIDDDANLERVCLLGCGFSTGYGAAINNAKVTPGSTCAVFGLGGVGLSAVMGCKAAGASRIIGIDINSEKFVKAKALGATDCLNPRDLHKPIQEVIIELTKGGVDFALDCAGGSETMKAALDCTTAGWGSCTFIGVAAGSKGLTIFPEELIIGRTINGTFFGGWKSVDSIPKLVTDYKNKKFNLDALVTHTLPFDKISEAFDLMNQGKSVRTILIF
Experimental: as §1, §3, §4

Class I ADH [3] = experiment: Inhibition of Class I ADH; assay type: biochemical, human; details: for Class I ADH activity abolished: 0.2 mM inhibitor
Experimental: as §1, §2
(§5) The values for these constants were determined with purified Class II ADH or a mixture of purified Class I isozymes, under the fluorometric assay conditions described above in Example 1.

Class II ADH [4] = target: T3, Class II ADH (Homo sapiens, UniProt P08319); experiment: Inhibition of Class II ADH; assay type: biochemical; set-up: was used to purify Class II ADH from human livers; from tissue; host or cells: human liver
T3 sequence (P08319 2-380 limits assumed): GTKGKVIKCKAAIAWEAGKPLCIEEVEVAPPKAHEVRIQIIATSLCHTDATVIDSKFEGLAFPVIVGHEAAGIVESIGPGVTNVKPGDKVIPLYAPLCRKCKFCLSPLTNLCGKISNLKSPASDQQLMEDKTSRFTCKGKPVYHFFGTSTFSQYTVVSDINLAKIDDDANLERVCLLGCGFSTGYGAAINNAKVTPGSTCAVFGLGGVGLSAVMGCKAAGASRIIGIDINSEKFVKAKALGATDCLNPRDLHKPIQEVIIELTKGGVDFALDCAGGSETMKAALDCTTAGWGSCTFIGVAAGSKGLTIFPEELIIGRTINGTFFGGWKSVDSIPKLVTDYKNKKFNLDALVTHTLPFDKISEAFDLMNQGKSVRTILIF
Experimental: as §1, §2, §5

Class III ADH = target: T4, Class III ADH (Homo sapiens, UniProt P11766); experiment: Inhibition of Class III ADH; assay type: biochemical
T4 construct: Adult human livers were obtained at autopsy; from tissue; host or cells: human liver obtained at autopsy
T4 sequence (P11766 2-374 limits assumed): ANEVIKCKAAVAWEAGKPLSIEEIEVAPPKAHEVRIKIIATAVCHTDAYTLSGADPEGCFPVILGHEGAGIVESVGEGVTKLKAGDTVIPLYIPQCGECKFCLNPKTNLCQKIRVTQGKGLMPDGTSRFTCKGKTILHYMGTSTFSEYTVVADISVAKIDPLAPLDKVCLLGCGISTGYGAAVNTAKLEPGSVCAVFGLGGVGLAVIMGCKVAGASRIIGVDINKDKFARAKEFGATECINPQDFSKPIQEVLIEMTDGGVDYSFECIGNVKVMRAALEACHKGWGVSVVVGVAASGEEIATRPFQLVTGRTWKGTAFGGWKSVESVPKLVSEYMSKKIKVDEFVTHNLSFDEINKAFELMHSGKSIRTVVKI
Experimental: With a high Km value of >0.5 mM, substrate IIA is completely insensitive for Class III ADH. Because Class III ADH has greater hydrophobic selectivity than Classes I and II ADH, naphthaldehydes and quinoline aldehydes which have aliphatic side chains may provide adequate sensitivity for measuring the amount of Class III ADH in serum. In addition because of its greater hydrophobic selectivity, inhibitor compounds such as 4-alkylpyrazoles having aliphatic side chains of 5 carbons (e.g., 4-PeP) or greater may provide, under certain conditions and at certain concentrations, adequate selectivity for measuring Class III ADH in the presence of Classes I and II. […] At 100 μM 4-PeP, the values for inhibition are: Classes I and II, >90%; Class III <10%. Thus, under certain conditions 4-PeP is clearly useful as a selective inhibitor of Class I and II activities, leaving >90% of Class III activity intact and measurable.

Class I ADH [5] = experiment: Inhibition of Class I ADH; assay type: biochemical, human
[6] = Spectral parameters for absorption and fluorescence of ADH substrates and products; assay type: physicochemical; details: for Absorption εmax / Absorption λmax / Fluorescence .phi. (quantum yield) / Fluorescence λmax: Mes buffer (45 mM), pH 7.0
Experimental: The spectral parameters for 4-methoxy-1-naphthaldehyde (IA), 6-methoxy-2-naphthaldehyde (IIA) and their reduction products (IB and IIB, respectively) are shown in Table I.
Ultraviolet absorption spectra were measured on a Cary 219 or Hewlett-Packard 8451 spectrophotometer. Fluorescence measurements were made in a Perkin Elmer MPF3 spectrofluorometer, equipped with an Osram XBO 150 Watt Xenon lamp, an R446 photomultiplier, and thermostatted cell holder through which water was passed from a Poly-Temp circulator with the following spectrometer settings: excitation wavelength 316 nm. bandwidth 8 nm for both substrate IA and IIA; emission wavelength. 370 nm for substrate IA and 360 nm for substrate IIA, emission bandwidth 24 nm. Changes in fluorescence as a result of oxidation or reduction of the substrate was then measured in the ratio mode. Generally, for fluorometric reactions (see part 8 below). a sensitivity setting of 3 was used with compensation of fluorescence background by the zero suppression control of the instrument.
Aldehyde reduction was monitored by following the decrease of absorption at 340 nm in 40 mM Mes buffer, pH 7.1. in the presence of saturating NADH, 50 μM for Class I and 100 μM for Class II. […] Initial reaction rates were measured and kinetic parameters determined by conventional procedures as described by Segel, 1975, Enzyme Kinetics, pp. 591-597, Wiley, N.Y.

[7] = Stability of substrates and product solutions; assay type: physicochemical; details: 200-400 μM, water with <5% ethanol
Experimental: The dilute solutions (300 μM) were prepared by diluting 1 ml of the stock solution to 10 ml with water.
Concentrations were determined spectrophotometrically using a molar absorptivity of 5700 M^-1 cm^-1 at 296 nm for IB and 1270 M^-1 cm^-1 at 330 nm for IIB.

[8] = Fluorescence quenching of alcohol products in 50-fold diluted serum; assay type: physicochemical, human; details: 50-fold dilution of serum
Source text: Human serum is known to fluoresce over a broad spectral region (Wolfbeis et al., 1985. Anal. Chim. Acta. 167:203-315); the instrumental settings should therefore be chosen to optimize the signal/background noise ratio. […] A 50-fold dilution of serum minimizes interference and maximizes sensitivity. At this dilution, alcohol product IB is only quenched 15% while IIB is quenched 5%. […] The cause of this background fluorescence is unknown

Class II ADH [9] = target: T3, Class II ADH; details: Class II versus other ADH isozymes; cited from earlier work
[10] = 0.2 mM inhibitor, read-out: Class II ADH activity abolished
[11] = 1 mM 4-PeP, pH 10, 0.1M glycine buffer

inhibition at 100 µM (Class III ADH; 100 μM 4-PeP): < 10%
inhibition at 1000 µM (Class III ADH; [11]): 60%
activity at 100 µM (Class III ADH; 4-PeP, under certain conditions, read-out: Class III activity left intact and measurable): > 90%
effect on activity towards IIA in normal sera ([2]; 0.2 mM 4-PeP): abolished
inhibition at 100 µM (Class II ADH [4]; 100 μM 4-PeP): > 90%
inhibition at 200 µM (Class II ADH [4]; [10]): 95 to 98%
inhibition at 1000 µM (Class II ADH [4]; [11]): > 100%
inhibition of Class II activity (Class II ADH [4]; 4-PeP, substrate IIA): more than 90%
Compound: CCCCCc1cn[nH]c1 [4-PeP, 4-Pentylpyrazole]
inhibition of IIA activity in sera ([1]; 0.2 mM 4-PeP, virtually all samples (44)): more than 90%
inhibition (Class I ADH [5]; 100 μM 4-PeP): > 90%
inhibition of activity (Class I ADH [5]; [11]): > 99.99%
Class I ADH activity abolished (Class I ADH [3]): 95-98%
inhibition of Class I activity (Class I ADH [3]; 4-PeP, substrate IA): greater than 99%

Absorption εmax [6]: 5,400 M^-1 cm^-1
Absorption λmax [6]: 297 nm
Fluorescence .phi. (quantum yield) [6]: 0.36
Fluorescence λmax [6]: 370 nm
molar absorptivity ([6]; at 296 nm): 5700 M⁻¹ cm⁻¹
stability of product solutions [7]: stable for up to a week
fluorescence quenching [8]: 15%
Compound: COc1ccc(CO)c2ccccc12 [IB, 4-methoxy-1-naphthalenemethanol]

Absorption εmax [6]: 1,250 M^-1 cm^-1
Absorption λmax [6]: 329 nm
Fluorescence .phi. (quantum yield) [6]: 0.26
Fluorescence λmax [6]: 355 nm
molar absorptivity ([6]; at 330 nm): 1270 M⁻¹ cm⁻¹
stability of product solutions [7]: stable for up to a week
fluorescence quenching [8]: 5%
Compound: COc1ccc2cc(CO)ccc2c1 [IIB, 6-methoxy-2-naphthalenemethanol]

The next lines start with the compound.

Compound: Cc1cn[nH]c1 [4-MeP, 4-Methylpyrazole]
4-MeP Inhibition (β2 β2 ADH (Class I); substrate IA, nm = not measurable): nm
inhibition at 200 µM (β2 β2 ADH (Class I); substrate IIA): 97%
4-MeP Inhibition (β1 β1 ADH (Class I); 0.2 mM 4-MeP, substrate IA): ~ 95%
4-MeP Inhibition (β1 β1 ADH (Class I); 0.2 mM 4-MeP, substrate IIA): 98%
e: fraction of ββ-ADH activity uninhibited (β1 β1 ADH (Class I); 0.2 mM 4-MeP, substrate IIA): 0.025
inhibition of Class I ββ isozymes (β1 β1 ADH (Class I); words): inhibited readily
activity toward IIA remaining in sera ([1]; 0.2 mM 4-MeP, 105 samples): ≥ 70%
inhibition of IA activity in sera ([1]; 0.2 mM 4-MeP, majority of samples (83)): more than 90%
inhibition of IA reaction in sera with elevated ADH ([1]; 3 mM 4-MeP): > 95%
effect on activity towards IIA in normal sera ([2]; 4-MeP): insensitive
inhibition of all Class I isozymes (Class I ADH [3]; 0.2 mM 4-MeP, 15 μM IA or IIA, pH 7.6): more than 90%
4-MeP Inhibition (Class I ADH [3]; 0.2 mM 4-MeP, substrate IA): 98%
b: Class I activity fraction retained (Class I ADH [3]; 0.2 mM 4-MeP, substrate IA): 0.025
4-MeP Inhibition (Class I ADH [3]; 0.2 mM 4-MeP, substrate IIA, average for Class I except ββ): 92%
Class I ADH activity abolished (Class I ADH [3]): 95-98%
enhancement of assay specificity for Class I and II isozymes with the two substrates (Class I ADH [3]; 4-MeP, Class I relative to Class II): about 100 fold
inhibition at 200 µM (Class II ADH [4]; 0.2 mM 4-MeP, 15 μM IA or IIA, pH 7.6, read-out: inhibition of Class II ADH): 11%
inhibition at 200 µM (Class II ADH [4]; 0.2 mM 4-MeP, substrate IA, read-out: 4-MeP Inhibition): 11%
inhibition at 200 µM (Class II ADH [4]; 0.2 mM 4-MeP, substrate IIA, as fraction, read-out: c: degree of inhibition of Class II ADH): 11%
inhibition at 200 µM (Class II ADH [4]; [10]): 95 to 98%

Compound: O=Cc1ccccc1 [benzaldehyde]
effect on rate of reduction of IA in sera with elevated ADH [1]: diminished

Compound: CCCC=O [butyraldehyde]
effect on rate of reduction of IA in sera with elevated ADH [1]: diminished

Compound: CCO [ethanol]
Km for ethanol of Class II relative to other ADH isozymes (Class II ADH [9]): ≤ 100 times
